Common to all, as to type: functional
Assay [1] concerns CAKI-1. Briefly: Cytotoxicity against Homo sapiens (human) Caki1 cells assessed as growth inhibition at 10 uM after 48 hr by coulter counter analysis. Conditions: CAKI-1, 48 h, read-out: GI.
For assay [2], the system named is 786-0. Briefly: Cytotoxicity against Homo sapiens (human) 786-0 cells assessed as growth inhibition at 10 uM after 48 hr by coulter counter analysis. Conditions: 786-0, 48 h, read-out: GI.
For assay [3], the system named is SK-OV-3. Briefly: Cytotoxicity against Homo sapiens (human) SKOV3 cells assessed as growth inhibition at 10 uM after 48 hr by coulter counter analysis. Conditions: SK-OV-3, 48 h, read-out: GI.
Assay [4] concerns T47D. Kind of assay: Cytotoxicity against Homo sapiens (human) T47D cells assessed as growth inhibition at 10 uM after 48 hr by coulter counter analysis. Conditions: read-out: GI.
For assay [5], the system named is DU-145. Briefly: Cytotoxicity against Homo sapiens (human) DU145 cells assessed as growth inhibition at 10 uM after 48 hr by coulter counter analysis. Conditions: DU-145, 48 h, read-out: GI.
In assay [6] the test system is M14. Briefly: Cytotoxicity against Homo sapiens (human) M14 cells assessed as growth inhibition at 10 uM after 48 hr by coulter counter analysis. Conditions: M14, 48 h, read-out: GI.
For assay [7], the system named is LOX IMVI. Briefly: Cytotoxicity against Homo sapiens (human) LOXIMVI cells assessed as growth inhibition at 10 uM after 48 hr by coulter counter analysis. Conditions: read-out: GI.
Assay [8] has as its system SF-295. Briefly: Cytotoxicity against Homo sapiens (human) SF295 cells assessed as growth inhibition at 10 uM after 48 hr by coulter counter analysis. Conditions: SF-295, 48 h, read-out: GI.
Assay [9] deals with SF-539. Kind of assay: Cytotoxicity against Homo sapiens (human) SF539 cells assessed as growth inhibition at 10 uM after 48 hr by coulter counter analysis. Conditions: SF-539, 48 h, read-out: GI.
The test system of assay [10] is HCT-116. Kind of assay: Cytotoxicity against Homo sapiens (human) HCT116 cells assessed as growth inhibition at 10 uM after 48 hr by coulter counter analysis. Conditions: HCT-116, 48 h, read-out: GI.
Assay [11] has as its system NCI-H522. Kind of assay: Cytotoxicity against Homo sapiens (human) NCI-H522 cells assessed as growth inhibition at 10 uM after 48 hr by coulter counter analysis. Conditions: NCI-H522, 48 h, read-out: GI.
Assay [12] relates to OVCAR-3. Briefly: Cytotoxicity against Homo sapiens (human) OVCAR3 cells assessed as growth inhibition at 10 uM after 48 hr by coulter counter analysis. Conditions: OVCAR-3, 48 h, read-out: GI.
Assay [13] relates to IGROV-1. Kind of assay: Cytotoxicity against Homo sapiens (human) IGROV1 cells assessed as growth inhibition at 10 uM after 48 hr by coulter counter analysis. Conditions: IGROV-1, 48 h, read-out: GI.
The test system of assay [14] is UACC-257. Kind of assay: Cytotoxicity against Homo sapiens (human) UACC257 cells assessed as growth inhibition at 10 uM after 48 hr by coulter counter analysis. Conditions: UACC-257, 48 h, read-out: GI.
Assay [15] relates to NCI-H460. Kind of assay: Cytotoxicity against Homo sapiens (human) NCI-H460 cells assessed as growth inhibition at 10 uM after 48 hr by coulter counter analysis. Conditions: NCI-H460, 48 h, read-out: GI.
In assay [16] the test system is NCI-H23. Briefly: Cytotoxicity against Homo sapiens (human) NCI-H23 cells assessed as growth inhibition at 10 uM after 48 hr by coulter counter analysis. Conditions: NCI-H23, 48 h, read-out: GI.
In assay [17] the test system is NCI-H226. Briefly: Cytotoxicity against Homo sapiens (human) NCI-H226 cells assessed as growth inhibition at 10 uM after 48 hr by coulter counter analysis. Conditions: NCI-H226, 48 h, read-out: GI.
The subject of assay [18] is Hs-578T. Kind of assay: Cytotoxicity against Homo sapiens (human) Hs578T cells assessed as growth inhibition at 10 uM after 48 hr by coulter counter analysis. Conditions: read-out: GI.
In assay [19] the test system is CCRF-CEM. Briefly: Cytotoxicity against Homo sapiens (human) CCRF-CEM cells assessed as growth inhibition at 10 uM after 48 hr by coulter counter analysis. Conditions: read-out: GI.

Bounds are passed on as bounds.

In the case of `O=C1c2ccccc2C(=O)N1CCCSc1nc2ccccc2c(=O)n1CCc1ccccc1`, the inhibition of growth at 10 µM was 34% in assay [1]; 13% in assay [2]; 12% in [3]; 30% in assay [4]; below 10% in assay [5]; below 10% in assay [6]. The inhibition of growth at 10 µM in assay [7] is below 10%; in assay [8], below 10%; in assay [9], below 10%; in [10] it was 21%; in assay [11], 13%; in [12] it was below 10%. Further, the inhibition of growth at 10 µM in [13], in assay [14], in assay [15], in [16] and in assay [17] was below 10% each time.

For `O=c1c2ccccc2nc(SCc2nnc(S)n2Cc2ccccc2)n1CCc1ccccc1`, the inhibition of growth at 10 µM in [1] was below 10%; in [2] it was below 10%; in [3], below 10%; in assay [4] it was 38%; in [18], below 10%; in assay [5], below 10%. Besides, the inhibition of growth at 10 µM in [6] is below 10%; in assay [7], 14%; in assay [8], below 10%; in [9], below 10%; in assay [10] it was 24%; in assay [11], 46%. For the same compound, the inhibition of growth at 10 µM in assay [12] is below 10%; in assay [13], below 10%; in assay [14], below 10%; in assay [16] it was below 10%; in assay [17] it was 22%; in [19] it was 13%.

As to `O=C(CSc1nc2ccccc2c(=O)n1CCc1ccccc1)c1ccc(F)cc1`, the inhibition of growth at 10 µM in assay [1] is 21%; in assay [2] it was 32%; in [3], below 10%; in assay [4] it was 18%; in assay [18], 25%; in [5], below 10%. Also, the inhibition of growth at 10 µM in [6] was below 10%; in [7] it was below 10%; in assay [8], below 10%; in assay [9], 13%; in assay [10], 18%; in assay [11] it was below 10%. The inhibition of growth at 10 µM was below 10% in assay [12]; 21% in assay [13]; below 10% in assay [14]; below 10% in assay [15]; 20% in assay [16]; below 10% in assay [17].

With `O=C(CSc1nc2ccccc2c(=O)n1CCc1ccccc1)c1ccccc1`, the inhibition of growth at 10 µM in assay [1] is 22%; in [2] it was below 10%; in assay [3], below 10%; in [4], below 10%; in assay [18] it was below 10%; in [5] it was below 10%. The inhibition of growth at 10 µM in assay [6] was below 10%; in assay [7], below 10%; in [8], 18%; in assay [9], below 10%; in [10] it was 19%; in assay [11] it was 11%. For the same compound, the inhibition of growth at 10 µM in assay [12], in assay [13], in [14], in assay [15], in assay [16] and in [17] was below 10% each time.

Take `O=c1c2ccccc2nc(SCCN2CCCCC2)n1CCc1ccccc1`: the inhibition of growth at 10 µM in assay [1] was 27%; in assay [2], 14%; in assay [3], below 10%; in assay [4], 35%; in assay [18], below 10%; in assay [5], 11%. In addition, the inhibition of growth at 10 µM was below 10% in [6]; 19% in assay [7]; 13% in [8]; below 10% in [9]; 27% in assay [10]; 11% in assay [11]. Further, the inhibition of growth at 10 µM is below 10% in [12]; 22% in assay [13]; below 10% in [14]; below 10% in [15]; 23% in assay [16]; below 10% in [17].

With `O=c1c2ccccc2nc(SCCN2CCOCC2)n1CCc1ccccc1`, the inhibition of growth at 10 µM in assay [1], in assay [2], in [3], in assay [18], in [5] and in assay [6] was below 10% in each case. Moreover, the inhibition of growth at 10 µM in assay [7], in assay [8], in assay [9], in assay [10], in [11] and in assay [12] was below 10% throughout. Moreover, the inhibition of growth at 10 µM in [13], in assay [14], in [15], in assay [16] and in assay [17] was below 10% each time.

In the case of `CSc1nc2ccccc2c(=O)n1CCc1ccccc1`, the inhibition of growth at 10 µM in [1] was below 10%; in assay [3], below 10%; in assay [4], 59%; in assay [18], 14%; in assay [5] it was below 10%; in assay [6], below 10%. Further, the inhibition of growth at 10 µM in assay [7] is 11%; in [8] it was below 10%; in [9], below 10%; in [10] it was 37%; in assay [11] it was below 10%; in assay [12], below 10%. The inhibition of growth at 10 µM was 24% in assay [13]; below 10% in assay [14]; below 10% in [15]; 16% in assay [16]; 11% in assay [17].

Regarding `O=c1c2ccccc2nc(SCc2ccc([N+](=O)[O-])cc2)n1CCc1ccccc1`, the inhibition of growth at 10 µM was 17% in [1]; below 10% in [2]; below 10% in [3]; 15% in assay [4]; 19% in [18]; 24% in assay [5]. In addition, the inhibition of growth at 10 µM in assay [6] was below 10%; in assay [7], below 10%; in assay [8] it was below 10%; in assay [9], below 10%; in assay [10], 20%; in [11], below 10%. In addition, the inhibition of growth at 10 µM was below 10% in assay [12]; below 10% in assay [13]; below 10% in [14]; below 10% in assay [15]; 15% in assay [16].

Values taken from ChEMBL document CHEMBL3044826, “Design, synthesis and biological evaluation of some novel substituted 2-mercapto-3-phenethylquinazolines as antitumor agents” (2013).
